Molecular target: TRPV1 (Homo sapiens, UniProt Q8NER1)
Experiment: Single cell confocal Ca2+ imaging (fluo-4) in transfected HEK293 cells
Format: cell-based
Parameters: host or cells: HEK293 (ATCC CRL-1573.3), transient
Settings: capsaicin 1μM, ±PZQ 100μM
From the text: Human TRPM8 cDNA was a VersaClone from R&D Systems (RDC0188). Plasmids encoding human TRPA1 and human TRPV1 cDNA were purchased from DNASU plasmid repository (HsCD00080227 and HsCD00081472, respectively). The TRP channel coding sequences were subcloned into pCS2+ to introduce a COOH-term myc tag using the InFusion HD method (Clontech), HindIII/XhoI restriction enzymes (NEB) and the following primers: TRPM8 F–TGGGGACGTCGGAGC-aagctt-[…]; TRPM8 R–AAATCGATGGGATGC-ctcgag-[…]; TRPA1 F-GGACGTCGGAGC-aagctt- atgaagcgcagcctgagg; TRPA1 R-TCGATGGGATGC-ctcgag-[…]; TRPV1 F–GGACGTCGGAGC-aagctt-[…]; TRPV1 R-TCGATGGGATGC-ctcgag-cttctccccggaagcgg (where upper case specifies vector-specific sequences, italics indicate restriction sites, and lower case indicates TRP channel specific sequences). Primers are listed in a 5’ to 3’ orientation.
HEK293 cells (ATCC CRL-1573.3) were cultured in DMEM supplemented with 10% fetal bovine serum (FBS), penicillin (100 units/ml), streptomycin (100 μg/ml), and L-glutamine (290 μg/ml). Cells were transiently transfected (Lipofectamine LTX, Thermo Fisher) at a density of 2x10^6 cells per T-25 cell-culture flask with TRP channel cDNA. For Ca^2+ imaging assays, HEK293 cells were seeded onto 8-chambered coverglass slides (Thermo Fisher, 115411PK), at a density of 1x10^4 cells one day prior to imaging. Cells were washed twice with HBSS, and incubated with fluo-4-AM (4μM), pluronic F127 (0.4%) and probenecid (2.5mM) for 25 minutes at room temperature. Cells were then washed twice with HBSS, and left at room temperature (30 minutes) for de-esterification. Dishes were mounted on an Olympus IX81 microscope and fluorescence changes (λex = 488nM, λem = 513±15nm bandpass filter) monitored using a Yogokawa spinning disk confocal (CSU-X-M1N) and an Andor iXon Ultra 888 EMCCD camera.

TRPV1, sequence (Q8NER1 whole entry): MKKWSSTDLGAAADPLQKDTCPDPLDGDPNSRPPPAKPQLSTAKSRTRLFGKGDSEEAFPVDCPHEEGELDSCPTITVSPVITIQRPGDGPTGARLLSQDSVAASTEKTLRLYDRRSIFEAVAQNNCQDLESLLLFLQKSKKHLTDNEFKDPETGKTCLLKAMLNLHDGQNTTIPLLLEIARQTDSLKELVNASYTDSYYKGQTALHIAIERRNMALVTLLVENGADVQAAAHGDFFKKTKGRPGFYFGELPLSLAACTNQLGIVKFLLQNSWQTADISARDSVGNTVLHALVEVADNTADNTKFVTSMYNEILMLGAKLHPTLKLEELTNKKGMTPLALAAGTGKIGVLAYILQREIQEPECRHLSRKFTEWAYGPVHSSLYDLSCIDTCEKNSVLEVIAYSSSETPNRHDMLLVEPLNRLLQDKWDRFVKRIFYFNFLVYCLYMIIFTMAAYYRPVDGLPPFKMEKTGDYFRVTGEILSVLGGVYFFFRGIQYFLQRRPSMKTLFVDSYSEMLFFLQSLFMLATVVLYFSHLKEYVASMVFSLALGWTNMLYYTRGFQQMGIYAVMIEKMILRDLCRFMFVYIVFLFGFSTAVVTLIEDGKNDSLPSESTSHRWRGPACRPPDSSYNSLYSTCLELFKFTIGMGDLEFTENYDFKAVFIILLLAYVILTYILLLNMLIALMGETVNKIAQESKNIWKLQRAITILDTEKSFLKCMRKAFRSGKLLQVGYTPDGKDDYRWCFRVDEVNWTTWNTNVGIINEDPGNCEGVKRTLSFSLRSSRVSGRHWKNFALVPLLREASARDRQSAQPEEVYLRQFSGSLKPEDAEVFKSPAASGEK

Ca2+ signal in TRPV1 expressing cells: No responses
Structure (SMILES): O=C(C1CCCCC1)N1CC(=O)N2CCc3ccccc3C2C1 (racemic) [±PZQ, praziquantel]

Source: publication PMC5927461, “Activation of host transient receptor potential (TRP) channels by praziquantel stereoisomers” (PLoS Neglected Tropical Diseases, 2018)
